# Reference: patent US20220274961A1, “SUBSTITUTED FUSED BI- OR TRI- HETEROCYCLIC COMPOUNDS AS EHMT2 INHIBITORS” (priority 2016, published 2022)
# Molecular target: T1, EHMT2 (Homo sapiens, UniProt Q96KQ7)
# T1 construct: endogenous in cells; host or cells: MDA-MB-231 (ATCC)
# T1 sequence (Q96KQ7 1-1210): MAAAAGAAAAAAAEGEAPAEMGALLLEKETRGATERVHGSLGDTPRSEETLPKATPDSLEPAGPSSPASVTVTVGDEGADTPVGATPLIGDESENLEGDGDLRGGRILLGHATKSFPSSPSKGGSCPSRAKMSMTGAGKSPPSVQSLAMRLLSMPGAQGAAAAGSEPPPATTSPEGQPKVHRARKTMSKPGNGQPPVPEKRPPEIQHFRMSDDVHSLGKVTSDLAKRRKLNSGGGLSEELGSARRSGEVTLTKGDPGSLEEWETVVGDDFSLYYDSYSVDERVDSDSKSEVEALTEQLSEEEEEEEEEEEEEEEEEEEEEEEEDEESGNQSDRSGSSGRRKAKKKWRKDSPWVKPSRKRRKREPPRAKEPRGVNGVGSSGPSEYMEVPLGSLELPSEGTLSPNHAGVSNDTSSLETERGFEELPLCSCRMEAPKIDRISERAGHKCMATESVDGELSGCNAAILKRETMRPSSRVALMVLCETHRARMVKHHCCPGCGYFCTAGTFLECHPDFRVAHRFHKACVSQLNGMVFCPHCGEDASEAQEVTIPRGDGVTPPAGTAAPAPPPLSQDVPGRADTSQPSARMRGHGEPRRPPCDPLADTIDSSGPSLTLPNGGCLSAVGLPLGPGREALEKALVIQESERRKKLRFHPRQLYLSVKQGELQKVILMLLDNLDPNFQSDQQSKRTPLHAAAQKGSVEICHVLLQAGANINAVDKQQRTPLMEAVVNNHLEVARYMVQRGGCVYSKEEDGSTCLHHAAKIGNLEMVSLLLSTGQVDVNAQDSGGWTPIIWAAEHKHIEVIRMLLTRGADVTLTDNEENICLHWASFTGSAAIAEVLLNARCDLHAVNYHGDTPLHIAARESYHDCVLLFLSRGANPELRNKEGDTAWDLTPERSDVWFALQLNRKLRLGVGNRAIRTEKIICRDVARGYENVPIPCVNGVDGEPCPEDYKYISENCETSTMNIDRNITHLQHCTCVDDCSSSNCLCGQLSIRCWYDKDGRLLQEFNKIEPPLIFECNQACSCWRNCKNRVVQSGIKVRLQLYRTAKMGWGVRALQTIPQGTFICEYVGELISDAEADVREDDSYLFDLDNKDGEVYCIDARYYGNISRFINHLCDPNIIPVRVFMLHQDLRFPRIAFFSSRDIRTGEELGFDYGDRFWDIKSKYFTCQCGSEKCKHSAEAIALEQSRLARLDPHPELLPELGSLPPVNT
# Experiment: MDA-MB-231 H3K9me2 in-cell Western assay (EHMT2 ICW)
# Assay type: cell-based
# Conditions: not given
# Description: MDA-MB-231 cell line was purchased from ATCC (Manassas, Va., USA). RPMI/Glutamax medium, Penicillin-Streptomycin, Heat Inactivated Fetal Bovine Serum, and D-PBS were purchased from Life Technologies (Grand Island, N.Y., USA). Odyssey blocking buffer, 800CW goat anti-mouse IgG (H+L) antibody, and Licor Odyssey Infrared Scanner were purchased from Licor Biosciences, Lincoln, Nebr., USA. H3K9me2 mouse monoclonal antibody (Cat #1220) was purchased from Abcam (Cambridge, Mass., USA). 16% Paraformaldehyde was purchased from Electron Microscopy Sciences, Hatfield, Pa., USA). MDA-MB-231 cells were maintained in complete growth medium (RPMI supplemented with 10% v/v heat inactivated fetal bovine serum) and cultured at 37° C. under 5% CO2. UNC0638 was purchased from Sigma-Aldrich (St. Louis, Mo., USA).
# General Procedure for MDA-MB-231 HEK9me2 in-cell Western Assay. Compound (100 nL) was added directly to 384-well cell plate. MDA-MB-231 cells (ATCC) were seeded in assay medium (RPMI/Glutamax supplemented with 10% v/v heat inactivated fetal bovine serum and 1% Penicillin/Streptomycin, Life Technologies) at a concentration of 3,000 cells per well to a Poly-D-Lysine coated 384-well cell culture plate with 50 μL per well. Plates were incubated at 37° C., 5% CO2 for 48 hours (BD Biosciences 356697). Plates were incubated at room temperature for 30 minutes and then incubated at 37° C., 5% CO2 for additional 48 hours. After the incubation, 50 μL per well of 8% paraformaldehyde (Electron Microscopy Sciences) in PBS was added to the plates and incubated at room temperature for 20 minutes. Plates were transferred to a Biotek 406 plate washer and washed 2 times with 100 μL per well of wash buffer (1×PBS containing 0.3% Triton X-100 (v/v)). Next, 60 μL per well of Odyssey blocking buffer (Licor Biosciences) was added to each plate and incubated for 1 hour at room temperature. Blocking buffer was removed and 20 μL of monoclonal primary antibody α-H3K9me2 (Abcam) diluted 1:800 in Odyssey buffer with 0.1% Tween 20 (v/v) were added and plates were incubated overnight (16 hours) at 4° C. Plates were washed 5 times with 100 μL per well of wash buffer. Next 20 μL per well of secondary antibody was added (1:500 800CW donkey anti-mouse IgG (H+L) antibody (Licor Biosciences), 1:1000 DRAQ5 (Cell Signaling Technology) in Odyssey buffer with 0.1% Tween 20 (v/v)) and incubated for 1 hour at room temperature. The plates were washed 5 times with […] wash buffer then 2 times with 100 μL per well of water. Plates were allowed to dry at room temperature then imaged on a Licor Odyssey Infrared Scanner (Licor Biosciences) which measured integrated intensity at 700 nm and 800 nm wavelengths. Both 700 and 800 channels were scanned.
# % Inhibition Calculation. First, the ratio for each well was determined by:
# Each plate included fourteen control wells of DMSO only treatment (Minimum Inhibition) as well as fourteen control wells (background wells) for maximum inhibition treated with control compound UNC0638 (Background wells).
# The average of the ratio values for each well was calculated and used to determine the percent inhibition for each test well in the plate. Control compound was serially diluted three-fold in DMSO for a total of 10 test concentrations beginning at 1 μM. Percent inhibition was calculated as: […]
# IC50 curves were generated using triplicate wells per concentration of compound. The IC50 is the concentration of compound at which measured methylation is inhibited by 50% as interpolated from the dose response curves. IC50 values were calculated using a non-linear regression (variable slope-four parameter fit model) with by the following formula:
# where Top is fixed at 100% and Bottom is fixed to 0%, [I]=concentration of inhibitor, IC50=half maximal inhibitory concentration, and n=Hill Slope.
row,SMILES,IC50
1,"COc1cc2c(cc1OCCCN1CCCC1)N=C(N)C21CCOC1 (centres unmarked) [Compound 7, 5′-methoxy-6′-(3-(pyrrolidin-1-yl)propoxy)-4,5-dihydro-2H-spiro[furan-3,3′-indol]-2′-amine]",0.1 to 1 µM

# Same assay, conditions: MDA-MB-231 cells, H3K9me2 in-cell Western; read-out: EHMT2 ICW (IC50 μM)
row,IC50,SMILES
1,1 to 10 µM,"COc1cc2[nH]c(N)nc2cc1OCCCN1CCCC1 [Compound 1, 6-methoxy-5-(3-(pyrrolidin-1-yl)propoxy)-1H-benzo[d]imidazol-2-amine]"
2,0.1 to 1 µM,"COc1cc2c(cc1OCCCN1CCCC1)nc(N)n2C [Compound 2, 6-methoxy-1-methyl-5-(3-(pyrrolidin-1-yl)propoxy)-1H-benzo[d]imidazol-2-amine]"
3,0.1 to 1 µM,"COc1cc2c(cc1OCCCN1CCCC1)nc(N)n2C1CCCC1 [Compound 3, 1-cyclopentyl-6-methoxy-5-(3-(pyrrolidin-1-yl)propoxy)-1H-benzo[d]imidazol-2-amine]"
4,0.1 to 1 µM,"COc1cc2c(cc1OCCCN1CCCC1)N=C(N)C21CCOCC1 [Compound 5, 5-methoxy-6-(3-(pyrrolidin-1-yl)propoxy)-2′,3′,5′,6′-tetrahydrospiro[indole-3,4′-pyran]-2-amine]"
5,> 10 µM,"COc1cc2sc(N)nc2cc1OCCCN1CCCC1 [Compound 6, 6-methoxy-5-[3-(pyrrolidin-1-yl)propoxy]-1,3-benzothiazol-2-amine]"
6,< 0.1 µM,"CNc1nc2cc(OCCCN3CCCC3)c(OC)cc2n1C [Compound 8, 6-methoxy-N,1-dimethyl-5-(3-(pyrrolidin-1-yl)propoxy)-1H-benzo[d]imidazol-2-amine]"
7,0.1 to 1 µM,"CCN1CC[C@@H](COc2cc3nc(N)n(C4CCCC4)c3cc2OC)C1 [Compound 9, 1-cyclopentyl-5-[[(3R)-1-ethylpyrrolidin-3-yl]methoxy]-6-methoxy-1H-1,3-benzodiazol-2-amine]"
8,0.1 to 1 µM,"CCN1CC(COc2cc3nc(N)n(C4CCCC4)c3cc2OC)C1 [Compound 10, 1-cyclopentyl-5-((1-ethylazetidin-3-yl)methoxy)-6-methoxy-1H-benzo[d]imidazol-2-amine]"
9,1 to 10 µM,"COc1cc2c(cc1OCCCN1CCCC1)nc(N)n2CC(F)(F)F [Compound 11, 6-methoxy-5-(3-(pyrrolidin-1-yl)propoxy)-1-(2,2,2-trifluoroethyl)-1H-benzo[d]imidazole-2-amine]"
10,1 to 10 µM,"COc1cc2c(cc1OCCCN1CCCC1)nc(NCC(F)(F)F)n2C [Compound 12, 6-methoxy-1-methyl-5-(3-(pyrrolidin-1-yl)propoxy)-N-(2,2,2-trifluoroethyl)-1H-benzo[d]imidazol-2-amine]"
11,0.1 to 1 µM,"CNc1nc2cc(OCCCN3CCCC3)c(OC)cc2n1C1CCOCC1 [Compound 13, 6-methoxy-N-methyl-5-(3-(pyrrolidin-1-yl)propoxy)-1-(tetrahydro-2H-pyran-4-yl)-1H-benzo[d]imidazol-2-amine]"
12,1 to 10 µM,COc1cc2c(cc1OCCCN1CCCC1)nc(N)n2CC1CCOCC1 [Compound 18]
13,0.1 to 1 µM,COc1cc2c(cc1OCCCN1CCCC1)nc(N)n2C(C)C [Compound 19]
14,> 10 µM,"COc1cc2c(cc1OCCCN1CCCC1)nc(C)n2C [Compound 21, 6-methoxy-1,2-dimethyl-5-(3-(pyrrolidin-1-yl)propoxy)-1H-benzo[d]imidazole]"
15,> 10 µM,"COc1cc2c(cc1OCCCN1CCCC1)nc(C1CCCC1)n2C [Compound 22, 2-cyclopentyl-6-methoxy-1-methyl-5-(3-(pyrrolidin-1-yl)propoxy)-1H-benzo[d]imidazole]"
16,1 to 10 µM,"COc1cc2c(cc1OCCCN1CCCC1)nc(C)n2C1CCCC1 [Compound 23, 1-cyclopentyl-6-methoxy-2-methyl-5-(3-(pyrrolidin-1-yl)propoxy)-1H-benzo[d]imidazole]"
17,< 0.1 µM,"COc1cc2c(cc1C#CCN1CCCC1)N=C(N)C21CCC1 [Compound 24, 5′-methoxy-6′-(3-(pyrrolidin-1-yl)prop-1-yn-1-yl)spiro[cyclobutane-1,3′-indol]-2′-amine]"
18,0.1 to 1 µM,CNc1nc2cc(OC[C@H](O)CN3CCC3)c(OC)cc2n1C [Compound 25]
19,0.1 to 1 µM,CNc1nc2cc(OC[C@H](O)CN3CCCC3)c(OC)cc2n1C [Compound 26]
